Where “and” joins values, the source holds several entries; their conditions need not be identical. Equal entries are not always repeated. Entries after “also recorded” stand apart in the source; their conditions may differ. Where two headings read alike, the source gives them in different places.

The test system of data set [1] is COc1ccc2c(CC(=O)N[C@@H](CCCNC(=N)N)C(=O)N3CCC[C@H]3C(=O)N3CCC[C@H]3C(=O)NCC(=O)N[C@@H](Cc3ccccc3)C(=O)N[C@@H](CO)C(=O)N[C@@H](C)C(=O)N[C@@H](Cc3ccccc3)C(=O)N[C@@H](CCCCNc3ccc([N+](=O)[O-])cc3[N+](=O)[O-])C(=O)O)cc(=O)oc2c1. The data set is described as follows: Initial rate fluorescence assay, auerolysin, substrate Mca-[…](Dnp)-OH (Km, Ki). Format: biochemical, staphylococcus aureus. Particulars: other: low precision; Km far above highest usable substrate concentration (10 μM); pH 7.5; 37.0 °C. Here is the method: (§1) To determine the kinetic and inhibitor kinetic coefficients Km, and Ki, initial rate experiments were performed using a Perkin Elmer LS 50 Luminescence spectrometer and the FL WinLab Software Package (Perkin Elmer). The reactions were followed for one minute and during that time 600 data points were collected. The excitation and emission wavelengths for the two fluorescence quenched MMP peptide substrates, McaPLGLDpaAR-NH2 and Mca-[…](Dpn)-OH were; λex = 320 nm, λem = 405 nm and a slit width = 10 nm at both wavelengths. All assays were performed at 37°C in an assay buffer of 0.1 M Hepes pH 7.5, 0.005% Brij-35, 10 mM CaCl2 and a total assay volume of 100 μl.
(§2) The Km value was calculated from non-linear regression of the Michaelis-Menten equation using the Enzyme kinetic module in GraphPad Prism 5.
(§3) A fixed substrate concentration of 5.0 μM and / or 10 μM and a fixed enzyme concentration along with varying concentrations of potential inhibitor were used to determine the inhibitory capacity of the two compounds. […] For a competitive inhibitor, the IC50 value equals Ki(1+[S]/Km). For tight binding competitive inhibitors (Ki ≤ [E]), the values of Ki and [E] were obtained by both a dose response plot (vi/v0 against [I]) using the Morrison equation [71] (2) and through the linear Henderson Plot (Eq 3). For tight binding inhibitors, the enzyme was pre-incubated for 15 min at 37°C in the presence of inhibitor and the reaction was started by the addition of substrate. Graph Pad Prism 5 was used to calculate Ki and [E] values.

Data set [2] concerns the target T1, recombinant human MMP-14 catalytic domain (Homo sapiens, UniProt P50281).
T1 construct: recombinant MMP-14 (catalytic domain) were from Calbiochem; purchased Calbiochem (San Diego, CA, USA)
The data set is described as follows: Initial rate fluorescence assay, MMP-14 catalytic domain, substrate Mca-PLGLDpaAR-NH2 (Km, Ki). Format: biochemical. Here is the method: as §1, §2, §3

For data set [3], the target named is T2, thermolysin (Bacillus thermoproteolyticus, UniProt P00800). The data set is described as follows: Initial rate fluorescence assay, thermolysin, substrate Mca-RPPGFSAFK(Dnp)-OH (Km, inhibition). The note with it: N.I. = no inhibition up to 100 μM of inhibitor. Here is the method: as §1, §2
(§4) A fixed substrate concentration of 5.0 μM and / or 10 μM and a fixed enzyme concentration along with varying concentrations of potential inhibitor were used to determine the inhibitory capacity of the two compounds. […] For a competitive inhibitor, the IC50 value equals Ki(1+[S]/Km). For tight binding competitive inhibitors (Ki ≤ [E]), the values of Ki and [E] were obtained by both a dose response plot (vi/v0 against [I]) using the Morrison equation [71] […]
(§5) The IC50 values were determined from a dose response plot vi/v0 vs log [Inhibitor] as described previously.

The next data set has as its target T3, auerolysin (Staphylococcus aureus, UniProt P81177).
T3 construct: purchased BioCentrum Ltd (Kraków, Poland)
As to the kind of experiment: Initial rate fluorescence assay, auerolysin, substrate Mca-[…](Dnp)-OH (Km, Ki). In kind it is biochemical. Here is the method: as §1, §2, §3

Data set [4] addresses four forms of activated MMP-9 (Homo sapiens, UniProt P14780). The data set is described as follows: Ki across the four forms of activated MMP-9 (summary). The note with it: ratio of Ki values, compound 1b vs galardin. In kind it is biochemical. The protocol: as §1, §3
The target of the next data set is MMP-9. Particulars: cited from earlier work.
The target in data set [5] is T4, pseudolysin (Pseudomonas aeruginosa, UniProt P14756). As to the kind of experiment: Initial rate fluorescence assay, pseudolysin, substrate Mca-RPPGFSAFK(Dnp)-OH (Km, inhibition). Particulars: N.I. = no inhibition up to 100 μM of inhibitor. Here is the method: as §1, §2, §4, §5
Data set [6] relates to COc1ccc2c(CC(=O)N[C@@H](CCCNC(=N)N)C(=O)N3CCC[C@H]3C(=O)N3CCC[C@H]3C(=O)NCC(=O)N[C@@H](Cc3ccccc3)C(=O)N[C@@H](CO)C(=O)N[C@@H](C)C(=O)N[C@@H](Cc3ccccc3)C(=O)N[C@@H](CCCCNc3ccc([N+](=O)[O-])cc3[N+](=O)[O-])C(=O)O)cc(=O)oc2c1. As to the kind of experiment: purified protein, by the assay type. Particulars: pH 7.5, 37.0 °C.
Method: To determine the kinetic and inhibitor kinetic coefficients Km, and Ki, initial rate experiments were performed using a Perkin Elmer LS 50 Luminescence spectrometer and the FL WinLab Software Package (Perkin Elmer). The reactions were followed for one minute and during that time 600 data points were collected. The excitation and emission wavelengths for the two fluorescence quenched MMP peptide substrates, McaPLGLDpaAR-NH2 and Mca-[sequence](Dpn)-OH were; λex = 320 nm, λem = 405 nm and a slit width = 10 nm at both wavelengths. All assays were performed at 37°C in an assay buffer of 0.1 M Hepes pH 7.5, 0.005% Brij-35, 10 mM CaCl2 and a total assay volume of 100 μl.
The IC50 values were determined from a dose response plot vi/v0 vs log [Inhibitor] as described previously [56].
Data set [7] has as its system MMP-14 (catalytic domain). The note with it: cited from earlier work.
Data set [8] has as its target T2, thermolysin. Also on record: purchased Calbiochem (San Diego, CA, USA); method as in Grobelny D et al. [58]. The note with it: ref Grobelny D et al. [58]; cited from earlier work.
Data set [9] concerns the target T4, pseudolysin. Also on record: purchased Calbiochem (San Diego, CA, USA). The note with it: ref Grobelny D et al. [58]; cited from earlier work.

T3 sequence (P81177 209-509): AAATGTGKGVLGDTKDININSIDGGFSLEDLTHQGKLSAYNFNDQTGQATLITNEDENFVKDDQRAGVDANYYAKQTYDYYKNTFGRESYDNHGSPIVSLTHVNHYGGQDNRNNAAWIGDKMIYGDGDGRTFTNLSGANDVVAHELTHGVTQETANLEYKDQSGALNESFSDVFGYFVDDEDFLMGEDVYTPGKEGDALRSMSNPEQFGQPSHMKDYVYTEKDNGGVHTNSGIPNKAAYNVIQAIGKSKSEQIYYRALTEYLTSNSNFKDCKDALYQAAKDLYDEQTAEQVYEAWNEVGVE
T2 sequence (P00800 233-548): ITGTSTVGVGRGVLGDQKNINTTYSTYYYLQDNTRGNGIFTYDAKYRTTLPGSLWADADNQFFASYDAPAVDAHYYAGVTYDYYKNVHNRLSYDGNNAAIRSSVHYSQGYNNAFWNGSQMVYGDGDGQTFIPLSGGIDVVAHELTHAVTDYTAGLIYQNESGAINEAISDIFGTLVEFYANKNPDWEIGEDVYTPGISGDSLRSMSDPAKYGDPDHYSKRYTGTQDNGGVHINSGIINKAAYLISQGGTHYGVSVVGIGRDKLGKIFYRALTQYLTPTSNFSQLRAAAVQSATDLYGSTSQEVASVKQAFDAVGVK
T4 sequence (P14756 198-498): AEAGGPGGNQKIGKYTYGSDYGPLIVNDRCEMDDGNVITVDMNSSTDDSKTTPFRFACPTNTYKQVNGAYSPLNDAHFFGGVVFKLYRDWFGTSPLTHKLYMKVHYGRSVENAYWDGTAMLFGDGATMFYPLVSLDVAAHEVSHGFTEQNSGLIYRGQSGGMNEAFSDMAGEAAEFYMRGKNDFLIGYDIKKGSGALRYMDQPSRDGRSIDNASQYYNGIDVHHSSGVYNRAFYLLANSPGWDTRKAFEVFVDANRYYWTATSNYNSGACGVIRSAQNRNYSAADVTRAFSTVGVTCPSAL
four forms of activated MMP-9, sequence (P14780 107-508 limits assumed): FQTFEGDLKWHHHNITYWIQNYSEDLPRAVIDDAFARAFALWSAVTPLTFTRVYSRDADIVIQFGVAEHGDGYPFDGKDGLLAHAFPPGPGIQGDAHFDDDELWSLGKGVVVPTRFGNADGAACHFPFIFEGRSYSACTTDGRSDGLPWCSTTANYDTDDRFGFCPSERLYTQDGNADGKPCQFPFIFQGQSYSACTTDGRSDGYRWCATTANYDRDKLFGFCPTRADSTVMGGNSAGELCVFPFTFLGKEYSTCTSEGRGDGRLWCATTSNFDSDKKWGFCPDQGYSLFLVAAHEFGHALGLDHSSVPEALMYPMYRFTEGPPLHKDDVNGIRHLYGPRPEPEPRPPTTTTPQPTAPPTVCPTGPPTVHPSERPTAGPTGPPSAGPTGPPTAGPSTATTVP

For orientation: Km means the substrate concentration at which the rate is half of its maximum. auerolysin (Staphylococcus aureus): the Michaelis-Menten constant (Km) in [1] is 47 ± 41 µM.
As for `O=C(NO)[C@H]1[C@@H](O)[C@H](O)[C@H](O)CN1S(=O)(=O)c1ccc(Oc2ccccc2)cc1` [compound 1b], the Ki in data set [2] (Ki, Henderson plot, average, average ± S.E.M. of independent experiments, 37°C, pH 7.5) is 0.088 nM and 0.09 nM; in [2] (Ki, Henderson plot, individual experiment, Ki ± s.d. per experiment, [S] 5.0 or 10.0 μM), 0.074 nM and 0.128 nM and 0.081 nM and 0.07 nM and 0.08 nM; in [2] (Ki, Morrison equation, average, average ± S.E.M. of independent experiments), 0.16 ± 0.02 nM; in data set [2] (Ki, Morrison equation, individual experiment, Ki ± s.d. per experiment, [S] 5.0 μM), 0.16 nM (2×) and 0.21 nM; in data set [2] (read-out: Ki, Morrison equation, individual experiment) it was 0.1 ± 0.06 nM; on MMP-9 it was 0.097 nM. Moreover, the “interaction with MMP-14, times stronger than galardin” value in [2] (ratio of Ki values, compound 1b vs galardin) turned out to be 10 times. Further, the “Inhibitory effect (Ki: N.I.)” value on thermolysin [3] is “no inhibitory effect and N.I”; at auerolysin (N.I. = no inhibition up to 100 μM of inhibitor), “no inhibitory effect; also recorded: N.I.^c”; at pseudolysin [5], “no inhibitory effect and N.I”. The “interaction with MMP-9, times stronger than galardin” value in data set [4] fell in the range of 5 to 10 times.
In the case of “pseudolysin (Pseudomonas aeruginosa PAO1)”, the Michaelis-Menten constant (Km) in data set [6] (other: low precision, Km far above highest usable substrate concentration (10 μM)) was 24 ± 8 µM.
Turning to “thermolysin (Bacillus thermoproteolyticus)”, the Km in data set [6] (other: substrate 0.5 to 10.0 μM) stood at 6 ± 1 µM.
A word on the IC50: it is the concentration that gives 50% inhibition. On to `CNC(=O)[C@H](Cc1c[nH]c2ccccc12)NC(=O)[C@@H](CC(=O)NO)CC(C)C` [Galardin], for which the concentration for half-maximal inhibition (IC50) in data set [7] was 13.4 nM; against auerolysin it was 500 ± 40 nM; in the data set with MMP-9, […]. In addition, the Ki on thermolysin [8] was 20 nM; in [2] (Ki ± s.d. per experiment, [S] 5.0 μM, read-out: Ki, Morrison equation, individual experiment), 0.95 nM and 0.78 nM and 0.82 nM and 0.91 nM and 0.89 nM; in data set [2] (Ki ± s.d. per experiment, [S] 5.0 or 10.0 μM, read-out: Ki, Henderson plot, individual experiment), 0.78 nM (2×) and 0.86 nM and 0.76 nM and 1.16 nM; in data set [2] (average ± S.E.M. of independent experiments, 37°C, pH 7.5, read-out: Ki, Henderson plot, average) it was 0.87 ± 0.07 nM; in data set [2] (average ± S.E.M. of independent experiments, read-out: Ki, Morrison equation, average) it was 0.87 nM; at auerolysin (Ki app from the slope of the Henderson plot, 3.6 nM enzyme, r2 = 0.84, N = 16), 500 ± 60 nM. The Ki was 450 ± 50 nM at auerolysin (Ki from Henderson plot, from Ki app, 3.6 nM enzyme); 450 nM on auerolysin (Ki from IC50 (dose response plot, Eq (1))); 452 ± 35 nM at auerolysin (Ki, from dose response plot using Eq (1), one experiment); 20 nM at pseudolysin [9]. The “binding to auerolysin, times weaker than binding to thermolysin and pseudolysin” value at auerolysin (ratio of Ki values) was “about 25 times”.

Values taken from paper PMC6075749 (PLoS ONE, 2018).
